Experimental findings from ChEMBL document CHEMBL1201862, “PubChem BioAssay data set” (2004) are described below.

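Results reflect a 48-hour exposure of cells in 96-well plates to compound at five concentrations. Abbreviation: GI50, concentration required for 50% inhibition of growth.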 Activity calls are given as the source filed them. No stated cut-off is given here; in the data, active = GI50 up to about 1.1 µM and inactive = higher.

Common to all, as to assay: growth of human tumour cells (NCI), 48 h
Assay [1] deals with SNB-19.
The test system of assay [2] is PC-3.
The test system of assay [3] is Hs-578T.
Assay [4] has as its system U-251.
For assay [5], the system named is NCI-H23.
For assay [6], the system named is SK-MEL-2.
For assay [7], the system named is SW-620.
Assay [8] deals with NCI/ADR-RES.
Assay [9] relates to HCT-15.
Assay [10] relates to MDA-MB-231.
Assay [11] deals with A549.
The test system of assay [12] is MDA-MB-435.

With `CON(C)C(C#N)=C(C#N)C#N`, the GI50 in assay [1], in [2], in assay [3], in [4], in assay [5] and in assay [6] was > 10 µM (inactive) in each case. Moreover, the GI50 in assay [7] is > 10 µM (inactive); in assay [8], > 10 µM (inactive); in assay [9] it was above 10 µM; in assay [10], > 10 µM (inactive); in assay [11], > 10 µM (inactive); in assay [12], > 10 µM (inactive).

As for `Cn1cc(-c2csc(-c3cn(C)c4ccccc34)n2)c2ccccc21`, the GI50 is 42.7 µM (inactive) in [1]; 21.9 µM (inactive) in assay [2]; > 100 µM (inactive) in assay [3]; 32.4 µM (inactive) in assay [4]; 84.5 µM (inactive) in assay [5]; 38.8 µM (inactive) in [6]. Also, the GI50 was 59.4 µM (inactive) in [7]; > 100 µM (inactive) in [8]; above 100 µM in [9]; 17.3 µM (inactive) in assay [10]; 37.6 µM (inactive) in assay [11]; 26.4 µM (inactive) in assay [12].

`CC[C@H](O)[C@H](C)C=C1SCCCS1`: the GI50 in [2], in assay [3], in [4], in [5], in [6] and in assay [7] was > 100 µM (inactive) each time. The GI50 in assay [8] is > 100 µM (inactive); in assay [9], above 100 µM; in [10], > 100 µM (inactive); in [11], > 100 µM (inactive); in [12] it was > 100 µM (inactive).

As for `O=C(/C=C/c1ccc(OCc2ccccc2)cc1)NCc1ccc(C(=O)NCc2ccccc2)cc1`, the GI50 in [1], in assay [2], in assay [3], in assay [4], in assay [5] and in assay [6] was > 100 µM (inactive) in each case. Further, the GI50 is > 100 µM (inactive) in assay [7]; > 100 µM (inactive) in assay [8]; above 100 µM in assay [9]; > 100 µM (inactive) in assay [10]; > 100 µM (inactive) in assay [11]; > 100 µM (inactive) in assay [12].

In the case of `CC1=CC(C)C(C)N(CC2=NCCN2)c2ccccc21` (configuration not stated), the GI50 was > 100 µM (inactive) in assay [1]; 46.3 µM (inactive) in assay [2]; > 74.3 µM (inactive) in assay [3]; 76.6 µM (inactive) in [4]; > 100 µM (inactive) in assay [5]; 44.8 µM (inactive) in assay [6]. Also, the GI50 in assay [7] is > 100 µM (inactive); in assay [8] it was 99.5 µM (inactive); in assay [9] it was above 100 µM; in assay [10], 32.9 µM (inactive); in [11], > 87.3 µM (inactive); in assay [12], 46.5 µM (inactive).

For the molecule `CC(=O)c1c2c(cc3c1CC1(Cc4cc5c(cc4C1)C(=O)CCC5)C3)CCCC2` (configuration not stated), the GI50 is 13.8 µM (inactive) in [1]; 5.53 µM (inactive) in assay [2]; > 29.9 µM (inactive) in [3]; 10.8 µM (inactive) in assay [4]; 6.12 µM (inactive) in assay [5]; 2.88 µM (inactive) in [6]. Further, the GI50 was 5.25 µM (inactive) in assay [7]; 5 µM (inactive) in assay [8]; 3.94 µM in assay [9]; 9.25 µM (inactive) in [10]; > 21.5 µM (inactive) in assay [11]; 2.94 µM (inactive) in [12].

As to `Cn1c2ccc([N+](=O)[O-])cc2c(=O)n1Cc1ccccc1F`, the GI50 in assay [1] is 33.5 µM (inactive); in assay [2], 55.7 µM (inactive); in [3], 25.8 µM (inactive); in assay [4] it was 37.7 µM (inactive); in assay [5], 48 µM (inactive); in assay [6] it was 53.8 µM (inactive). The GI50 is > 100 µM (inactive) in assay [7]; 23 µM (inactive) in [8]; 40.5 µM in [9]; 34.2 µM (inactive) in assay [10]; 44.3 µM (inactive) in assay [11]; 74.3 µM (inactive) in assay [12].

Take `CN(C)C(=O)NCCN1CCCCCc2ccccc21`: the GI50 in [1] was > 100 µM (inactive); in assay [2] it was > 100 µM (inactive); in assay [3] it was > 100 µM (inactive); in assay [4], > 100 µM (inactive); in assay [5], 76.4 µM (inactive); in [6] it was 89.7 µM (inactive). The GI50 is > 100 µM (inactive) in assay [7]; > 100 µM (inactive) in assay [8]; above 100 µM in assay [9]; 57.1 µM (inactive) in assay [10]; > 100 µM (inactive) in [11]; 53 µM (inactive) in assay [12].

Consider `CCOC(=O)c1cc(Br)c(-c2cc(C)no2)[nH]1`, for which the GI50 was 80.4 µM (inactive) in assay [1]; 28.4 µM (inactive) in assay [2]; 25.5 µM (inactive) in [4]; 24.4 µM (inactive) in assay [5]; 34.4 µM (inactive) in assay [6]; 30 µM (inactive) in [7]. Further, the GI50 was 30.4 µM (inactive) in [8]; 25 µM in assay [9]; 29.2 µM (inactive) in assay [10]; 24.9 µM (inactive) in [11]; 14.3 µM (inactive) in [12].

Consider `CC1CC/C(=C\c2ccc(N(C)C)cc2)C2=C1C(c1ccc(N(C)C)cc1)NC(=S)N2` (configuration not stated), for which the GI50 in assay [1] is > 100 µM (inactive); in [2] it was 40.3 µM (inactive); in assay [3], > 100 µM (inactive); in assay [4], > 100 µM (inactive); in assay [5], > 100 µM (inactive); in assay [6] it was > 100 µM (inactive). The GI50 in [7] is > 100 µM (inactive); in assay [8], > 100 µM (inactive); in [9] it was above 100 µM; in assay [10], > 100 µM (inactive); in assay [12], > 100 µM (inactive).

Consider `CN(CCO)Cc1ncccc1O`, for which the GI50 in assay [1], in assay [2], in [3], in assay [4], in assay [5] and in [6] was > 100 µM (inactive) each time. Moreover, the GI50 in assay [7] was > 100 µM (inactive); in assay [8], > 100 µM (inactive); in [9] it was above 100 µM; in assay [10], > 100 µM (inactive); in assay [11], > 100 µM (inactive); in assay [12], > 100 µM (inactive).

For `c1ccc(CNc2ncnc3nn[nH]c23)cc1`, the GI50 in [1], in [2], in assay [4], in assay [5], in assay [6] and in assay [7] was > 100 µM (inactive) each time. Moreover, the GI50 in [8] is > 100 µM (inactive); in [9], above 100 µM; in assay [10], > 100 µM (inactive); in [11], > 100 µM (inactive); in [12], > 100 µM (inactive).

`COc1cccc(OCC(=N/NC(=O)c2ccncc2)/N=C/c2ccncc2)c1`: the GI50 in [1], in assay [2], in [3], in assay [4], in [5] and in assay [6] was > 100 µM (inactive) in each case. Further, the GI50 is > 100 µM (inactive) in assay [7]; > 100 µM (inactive) in assay [8]; above 100 µM in assay [9]; > 100 µM (inactive) in assay [10]; > 100 µM (inactive) in assay [11]; > 100 µM (inactive) in assay [12].
